Measurements reported in US9273058B2 (BRISTOL-MYERS SQUIBB COMPANY, priority 2013, dated 2016).
Where two headings read alike, the source gives them in different places.

Legend:
CK1ε = CK1ε (Homo sapiens, UniProt P49674); assay: CK1ε kinase assay (Caliper LabChip electrophoretic separation of fluoresceinated peptide substrate and product); format: biochemical; details: 200 pM CK1ε, 50 μM ATP, 1.5 μM peptide, 22 hours at room temperature
Procedure, shortened: (§1)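 Eleven-concentration compound series in kinase reactions run for 22 hours at room temperature. Terminated with EDTA, with product conversion read by electrophoretic separation. Non-linear regression gave IC50.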

CK1δ = CK1δ (Homo sapiens, UniProt P48730); assay: CK1δ kinase assay (Caliper LabChip electrophoretic separation of fluoresceinated peptide substrate and product); format: biochemical; details: 200 pM CK1δ, 50 μM ATP, 1.5 μM peptide, 22 hours at room temperature
Procedure, shortened: as §1

CK1ε, sequence (P49674 whole entry): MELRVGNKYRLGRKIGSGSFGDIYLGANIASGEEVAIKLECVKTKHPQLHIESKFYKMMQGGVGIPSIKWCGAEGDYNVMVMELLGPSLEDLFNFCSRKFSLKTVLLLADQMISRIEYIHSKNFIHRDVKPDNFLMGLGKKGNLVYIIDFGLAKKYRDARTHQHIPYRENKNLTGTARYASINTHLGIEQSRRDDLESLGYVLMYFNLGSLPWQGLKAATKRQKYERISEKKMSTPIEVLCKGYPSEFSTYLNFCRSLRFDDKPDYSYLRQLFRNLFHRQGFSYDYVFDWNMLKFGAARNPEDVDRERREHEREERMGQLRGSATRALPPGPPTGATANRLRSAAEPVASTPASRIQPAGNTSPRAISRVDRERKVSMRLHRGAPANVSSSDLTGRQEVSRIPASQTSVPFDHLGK
CK1δ, sequence (P48730 whole entry): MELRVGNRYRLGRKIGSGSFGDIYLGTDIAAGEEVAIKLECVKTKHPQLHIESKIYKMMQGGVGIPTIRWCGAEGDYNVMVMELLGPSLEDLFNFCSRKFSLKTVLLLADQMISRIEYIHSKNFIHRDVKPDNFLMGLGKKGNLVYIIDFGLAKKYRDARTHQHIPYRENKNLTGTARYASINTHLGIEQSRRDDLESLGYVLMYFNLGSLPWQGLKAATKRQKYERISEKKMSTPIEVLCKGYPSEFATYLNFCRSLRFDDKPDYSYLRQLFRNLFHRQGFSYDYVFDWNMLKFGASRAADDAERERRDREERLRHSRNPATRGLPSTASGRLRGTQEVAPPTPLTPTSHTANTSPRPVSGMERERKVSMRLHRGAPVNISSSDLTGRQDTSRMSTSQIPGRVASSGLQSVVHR

| IC50 (CK1ε; read-out: CK1ε IC50 range) [nM] | IC50 (CK1δ; read-out: CK1δ) [nM] | IC50 (CK1δ; read-out: CK1δ IC50 range) [nM] | IC50 (CK1ε; read-out: CK1ε) [nM] | SMILES |
| --- | --- | --- | --- | --- |
| 100 to 2000 | 894 | 100 to 2000 | – | CC(C)(C)NC(=O)N1CCn2nc(-c3cncnc3)c(C(N)=O)c2C1 [Compound 142, N^5-(tert-Butyl)-2-(pyrimidin-5-yl)-6,7-dihydropyrazolo [1,5-a]pyrazine-3,5(4H)-dicarboxamide] |
| 10 to 100 | 4.2 | 0.01 to 10 | 33.3 | CC(C)(C)NC(=O)N1CCn2nc(-c3ccc4cc[nH]c4c3)c(C(N)=O)c2C1 [Compound 143] |
| 100 to 2000 | – | 100 to 2000 | – | CC(C)(C)NC(=O)N1CCn2nc(-c3ccc(S(C)(=O)=O)cc3)c(C(N)=O)c2C1 [Compound 144, N^5-(tert-Butyl)-2-(4-(methylsulfonyl)phenyl)-6,7-dihydropyrazolo[1,5-a] pyrazine-3,5(4H)-dicarboxamide] |
| 100 to 2000 | 1050 | 100 to 2000 | 1820 | CC(C)(C)NC(=O)N1CCn2nc(-c3cn[nH]c3)c(C(N)=O)c2C1 [Compound 145, N^5-(tert-Butyl)-2-(1H-pyrazol-4-yl)-6,7-dihydropyrazolo[1,5-a] pyrazine-3,5(4H)-dicarboxamide] |
| 100 to 2000 | – | 100 to 2000 | – | CC(C)(C)NC(=O)N1CCn2nc(-c3cnc(N4CCCC4)nc3)c(C(N)=O)c2C1 [Compound 146, N^5-(tert-Butyl)-2-(2-(pyrrolidin-1-yl)pyrimidin-5-yl)-6,7-dihydropyrazolo[1,5-a]pyrazine-3,5(4H)-dicarboxamide] |
| 100 to 2000 | – | 100 to 2000 | – | CC(C)(C)NC(=O)N1CCn2nc(-c3cnc(N4CCOCC4)nc3)c(C(N)=O)c2C1 [Compound 147, N^5-(tert-Butyl)-2-(2-morpholinopyrimidin-5-yl)-6,7-dihydropyrazolo[1,5-a] pyrazine-3,5(4H)-dicarboxamide] |
| 100 to 2000 | – | 10 to 100 | – | CC(C)(C)NC(=O)N1CCn2nc(-c3ccc4scnc4c3)c(C(N)=O)c2C1 [Compound 149, 2-(Benzo[d]thiazol-5-yl)-N^5-(tert-butyl)-6,7-dihydropyrazolo[1,5-a] pyrazine-3,5(4H)-dicarboxamide] |
| 100 to 2000 | 122 | 100 to 2000 | 179 | CC(C)(C)NC(=O)N1CCn2nc(-c3cc(F)ccc3F)c(C(N)=O)c2C1 [Compound 151, N^5-(tert-Butyl)-2-(2,5-difluorophenyl)-6,7-dihydropyrazolo[1,5-a] pyrazine-3,5(4H)-dicarboxamide] |
| 100 to 2000 | – | 100 to 2000 | – | Cn1cc(-c2nn3c(c2C(N)=O)CN(C(=O)NC(C)(C)C)CC3)cn1 [Compound 153, N^5-(tert-Butyl)-2-(1-methyl-1H-pyrazol-4-yl)-6,7-dihydropyrazolo[1,5-a] pyrazine-3,5(4H)-dicarboxamide] |
| 10 to 100 | 24.3 | 10 to 100 | 27.7 | CC(C)(C)NC(=O)N1CCn2nc(-c3cc(Cl)cc(C#N)c3)c(C(N)=O)c2C1 [Compound 154, N^5-(tert-Butyl)-2-(3-chloro-5-cyanophenyl)-6,7-dihydropyrazolo[1,5-a] pyrazine-3,5(4H)-dicarboxamide] |
| 100 to 2000 | – | 100 to 2000 | – | CC(C)(C)NC(=O)N1CCn2nc(-c3cc(F)cc(C(F)(F)F)c3)c(C(N)=O)c2C1 [Compound 155, N^5-(tert-Butyl)-2-(3-fluoro-5-(trifluoromethyl)phenyl)-6,7-dihydropyrazolo[1,5-a] pyrazine-3,5(4H)-dicarboxamide] |
| 0.01 to 10 | – | 0.01 to 10 | – | N#Cc1ccc(NC(=O)N2CCn3nc(-c4cccc(Cl)c4)c(C(N)=O)c3C2)cc1C(F)(F)F [Compound 159, 2-(3-Chlorophenyl)-N^5-(4-cyano-3-(trifluoromethyl)phenyl)-6,7-dihydropyrazolo [1,5-a]pyrazine-3,5(4H)-dicarboxamide] |
| 0.01 to 10 | – | 0.01 to 10 | – | NC(=O)c1c(-c2cccc(Cl)c2)nn2c1CN(C(=O)Nc1ccc(OC(F)(F)F)cc1)CC2 [Compound 162, 2-(3-Chlorophenyl)-N^5-(4-(trifluoromethoxy)phenyl)-6,7-dihydropyrazolo[1,5-a]pyrazine-3,5(4H)-dicarboxamide] |
| 0.01 to 10 | 0.3 | 0.01 to 10 | 0.3 | N#Cc1ccc(NC(=O)N2CCn3nc(-c4cccc(Cl)c4)c(C(N)=O)c3C2)cc1 [Compound 166, 2-(3-Chlorophenyl)-N^5-(4-cyanophenyl)-6,7-dihydropyrazolo[1,5-a]pyrazine-3,5(4H)-dicarboxamide] |
| 0.01 to 10 | – | 0.01 to 10 | – | NC(=O)c1c(-c2cccc(Cl)c2)nn2c1CN(C(=O)Nc1ccc(C(F)(F)F)cc1)CC2 [Compound 168, 2-(3-Chlorophenyl)-N^5-(4-(trifluoromethyl)phenyl)-6,7-dihydropyrazolo[1,5-a]pyrazine-3,5(4H)-dicarboxamide] |
| 0.01 to 10 | – | 0.01 to 10 | – | CC(C)(NC(=O)N1CCn2nc(-c3cccc(Cl)c3)c(C(N)=O)c2C1)C(F)F [Compound 172, 2-(3-Chlorophenyl)-N^5-(1,1-difluoro-2-methylpropan-2-yl)-6,7-dihydropyrazolo[1,5-a] pyrazine-3,5(4H)-dicarboxamide] |
| 0.01 to 10 | – | 0.01 to 10 | – | CC(C)(NC(=O)N1CCn2nc(-c3cccc(Cl)c3)c(C(N)=O)c2C1)c1ccc(C#N)cc1 [Compound 173, 2-(3-Chlorophenyl)-N^5-(2-(4-cyanophenyl)propan-2-yl)-6,7-dihydropyrazolo[1,5-a] pyrazine-3,5(4H)-dicarboxamide] |
| 0.01 to 10 | – | 0.01 to 10 | – | NC(=O)c1c(-c2cccc(Cl)c2)nn2c1CN(C(=O)N[C@H]1C[C@H](F)C1)CC2 [Compound 175, 2-(3-Chlorophenyl)-N^5-((1r,3r)-3-fluorocyclobutyl)-6,7-dihydropyrazolo[1,5-a] pyrazine-3,5(4H)-dicarboxamide] |
| 0.01 to 10 | – | 0.01 to 10 | – | NC(=O)c1c(-c2cccc(Cl)c2)nn2c1CN(C(=O)N[C@H]1C[C@@H](F)C1)CC2 [Compound 176, 2-(3-Chlorophenyl)-N^5-((1s,3s)-3-fluorocyclobutyl)-6,7-dihydropyrazolo[1,5-a] pyrazine-3,5(4H)-dicarboxamide] |
| 0.01 to 10 | – | 0.01 to 10 | – | CO[C@H]1C[C@@H](NC(=O)N2CCn3nc(-c4cccc(Cl)c4)c(C(N)=O)c3C2)C1 [Compound 177, 2-(3-Chlorophenyl)-N^5-((1s,3s)-3-methoxycyclobutyl)-6,7-dihydropyrazolo[1,5-a] pyrazine-3,5(4H)-dicarboxamide] |
| 0.01 to 10 | – | 0.01 to 10 | – | CO[C@H]1C[C@H](NC(=O)N2CCn3nc(-c4cccc(Cl)c4)c(C(N)=O)c3C2)C1 [Compound 178, 2-(3-Chlorophenyl)-N^5-((1r,3r)-3-methoxycyclobutyl)-6,7-dihydropyrazolo [1,5-a]pyrazine-3,5(4H)-dicarboxamide] |
| 0.01 to 10 | – | 0.01 to 10 | – | NC(=O)c1c(-c2cccc(Cl)c2)nn2c1CN(C(=O)NCC1CC(F)(F)C1)CC2 [Compound 179, 2-(3-Chlorophenyl)-N^5-((3,3-difluorocyclobutyl)methyl)-6,7-dihydropyrazolo[1,5-a]pyrazine-3,5(4H)-dicarboxamide] |
| 0.01 to 10 | – | 0.01 to 10 | – | NC(=O)c1c(-c2cccc(Cl)c2)nn2c1CN(C(=O)NCC1CCC(F)(F)CC1)CC2 [Compound 180, 2-(3-Chlorophenyl)-N^5-((4,4-difluorocyclohexyl)methyl)-6,7-dihydropyrazolo[1,5-a]pyrazine-3,5(4H)-dicarboxamide] |
| 0.01 to 10 | – | 0.01 to 10 | – | NC(=O)c1c(-c2cccc(Cl)c2)nn2c1CN(C(=O)NC1CC3(CC3)C1)CC2 [Compound 181, 2-(3-Chlorophenyl)-N^5-(spiro[2.3]hexan-5-yl)-6,7-dihydropyrazolo[1,5-a]pyrazine-3,5(4H)-dicarboxamide] |
| 0.01 to 10 | – | 0.01 to 10 | – | NC(=O)c1c(-c2cccc(Cl)c2)nn2c1CN(C(=O)NC1CC3(C1)CC(F)(F)C3)CC2 [Compound 182, 2-(3-Chlorophenyl)-N^5-(6,6-difluorospiro[3.3]heptan-2-yl)-6,7-dihydropyrazolo[1,5-a] pyrazine-3,5(4H)-dicarboxamide] |
| 0.01 to 10 | – | 0.01 to 10 | – | NC(=O)c1c(-c2cccc(Cl)c2)nn2c1CN(C(=O)N[C@@H]1C[C@@H]3[C@H](C1)C3(F)F)CC2 [Compound 183, 2-(3-Chlorophenyl)-N^5-((1R,3s,5S)-6,6-difluorobicyclo[3.1.0]hexan-3-yl)-6,7-dihydropyrazolo[1,5-a]pyrazine-3,5(4H)-dicarboxamide] |
| 0.01 to 10 | – | 0.01 to 10 | – | NC(=O)c1c(-c2cccc(Cl)c2)nn2c1CN(C(=O)N[C@H]1C[C@@H]3[C@H](C1)C3(F)F)CC2 [Compound 184, 2-(3-Chlorophenyl)-N^5-((1R,3r,5S)-6,6-difluorobicyclo[3.1.0]hexan-3-yl)-6,7-dihydropyrazolo[1,5-a]pyrazine-3,5(4H)-dicarboxamide] |
| 0.01 to 10 | – | 0.01 to 10 | – | CC(C)(NC(=O)N1CCn2nc(-c3ccc(F)c(Cl)c3)c(C(N)=O)c2C1)C(F)F [Compound 185, 2-(3-Chloro-4-fluorophenyl)-N^5-(1,1-difluoro-2-methylpropan-2-yl)-6,7-dihydropyrazolo[1,5-a]pyrazine-3,5(4H)-dicarboxamide] |
| 0.01 to 10 | – | 0.01 to 10 | – | CC(C)(CC#N)NC(=O)N1CCn2nc(-c3ccc(F)c(Cl)c3)c(C(N)=O)c2C1 [Compound 186, 2-(3-Chloro-4-fluorophenyl)-N^5-(1-cyano-2-methylpropan-2-yl)-6,7-dihydropyrazolo [1,5-a]pyrazine-3,5(4H)-dicarboxamide] |
